In patent US6335339B1, “Triazine antiviral compounds” (Scriptgen Pharmaceuticals, Inc., priority 1998, dated 2002):
Read-outs that look alike come from different tables or passages of the source.

Key:
HBV = assay: antiviral assay in 2.2.15 cells producing HBV (virion DNA dot blot); format: cell-based, Hepatitis B virus
Outline: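 2.2.15 cells (integrated HBV genome) were treated daily with compound at 4 concentrations for 9 days; medium harvested 24 h later and virion DNA quantified by dot-blot hybridization. EC50/EC90 are µM concentrations reducing extracellular virus by 50%/90%; cytotoxicity by neutral red uptake, CC50 as 50% cell death.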

HIV derived RRE RNA = assay: heterologous hybridization inhibition assay with RRE RNA; format: binding; details: radiolabeled RRE RNA, rRNA competitor
[1] = extra-cellular virus reduced by 50%, 2.2.15 cells, 9 days treatment, read-out: Antiviral EC50

Row | Compound | EC50 (HBV; [1]) | RRE + rRNA IC50 (μM) (HIV derived RRE RNA) | IC50 (HIV derived RRE RNA) | EC50 (HBV; Hepatitis B virus, 216 h, read-out: Antiviral EC50 (μM)) | EC50 (HBV; Hepatitis B virus, 216 h, extra-cellular virus reduced by 50%, 2.2.15 cells, 9 days treatment, read-out: Antiviral EC50)
1 | Brc1cc2c(cc1C=NNc1nc(NCc3ccccc3)nc(Nc3ccccc3)n1)OCO2 [Compound 43] | 0.841 µM | inactive | – | – | –
2 | FC(F)(F)c1cccc(Nc2nc(Nc3cccc(Br)c3)nc(N3CCOCC3)n2)c1 [Compound 38] | 0.592 µM | inactive | – | – | –
3 | Cc1[nH]c2ccccc2c1C=NNc1nc(Nc2ccccc2)nc(N2CCCCC2)n1 [Compound 88] | 4.8 µM | – | 938 µM | – | –
4 | COc1ccc(C=NNc2nc(Nc3ccccc3)nc(Nc3ccc(C)cc3C)n2)c(OC)c1 [Compound 61] | 3.7 µM | inactive | – | – | –
5 | O=[N+]([O-])c1ccc(C=NNc2nc(Nc3ccccc3)nc(NC3CCCCC3)n2)cc1 [Compound 46] | > 100 µM | inactive | – | – | –
6 | C(=NNc1nc(Nc2ccccc2)nc(N2CCCCC2)n1)c1ccccc1 [Compound 3] | 4.8 µM | inactive | – | – | –
7 | CCCCN(CCCC)c1nc(NN=Cc2c[nH]c3ccccc23)nc(Nc2ccc([N+](=O)[O-])cc2)n1 [Compound 39] | 1 µM | inactive | – | – | –
8 | Cc1[nH]c2ccccc2c1C=NNc1nc(NCc2ccccc2)nc(Nc2ccccc2)n1 [Compound 50] | 29 µM | inactive | – | – | –
9 | Cc1[nH]c2ccccc2c1C=NNc1nc(Nc2ccccc2)nc(N2CCOCC2)n1 [Compound 4] | 3.4 µM | inactive | – | – | –
10 | O=[N+]([O-])c1ccc(Nc2nc(N/N=C/c3cccc(Cl)c3)nc(N3CCCCC3)n2)cc1 [Compound 41] | 36 µM | inactive | – | – | –
11 | O=[N+]([O-])c1cc(C=NNc2nc(Nc3ccccc3)nc(N3CCOCC3)n2)ccc1Cl [Compound 52] | 4.5 µM | inactive | – | – | –
12 | CCN(CC)c1nc(NN=Cc2cc([N+](=O)[O-])ccc2OC)nc(Nc2cc(C)ccc2C)n1 [Compound 85] | > 100 µM | inactive | – | – | –
13 | C(=Cc1ccccc1)C=NNc1nc(NCc2ccccc2)nc(Nc2ccccc2)n1 [Compound 91] | > 100 µM | – | 800 µM | – | –
14 | Cc1ccc(Nc2nc(NN=Cc3ccc4c(c3)OCO4)nc(Nc3ccccc3)n2)c(C)c1 [Compound 51] | 15 µM | inactive | – | – | –
15 | CC(C)c1ccc(C=NNc2nc(Nc3ccc([N+](=O)[O-])cc3)nc(N3CCCCC3)n2)cc1 [Compound 62] | > 100 µM | inactive | – | – | –
16 | Cc1ccc(Nc2nc(NN=Cc3ccc(Cl)cc3)nc(Nc3ccccc3)n2)c(C)c1 [Compound 42] | 6.1 µM | inactive | – | – | –
17 | CCN(CC)c1nc(NN=Cc2ccc(F)cc2)nc(Nc2ccc([N+](=O)[O-])cc2)n1 [Compound 68] | > 100 µM | inactive | – | – | –
18 | CC(C)c1ccc(C=NNc2nc(Nc3ccc([N+](=O)[O-])cc3)nc(N3CCCCCC3)n2)cc1 [Compound 56] | > 100 µM | inactive | – | – | –
19 | COc1ccc(C=NNc2nc(Nc3ccc([N+](=O)[O-])cc3)nc(N3CCCCC3)n2)cc1 [Compound 44] | 4.8 µM | inactive | – | – | –
20 | Cc1ccc(Nc2nc(NN=Cc3ccc(Cl)c(Cl)c3)nc(Nc3ccccc3)n2)c(C)c1 [Compound 40] | 30 µM | inactive | – | – | –
21 | COc1ccccc1C=NNc1nc(Nc2ccc([N+](=O)[O-])cc2)nc(Nc2ccc(C)c(C)c2)n1 [Compound 94] | > 100 µM | – | 250 µM | – | –
22 | CCN(CC)c1nc(N/N=C/c2ccc([N+](=O)[O-])cc2)nc(Nc2cc(C)ccc2C)n1 [Compound 63] | > 100 µM | inactive | – | – | –
23 | CC(C)(C)Nc1nc(NCc2ccccc2)nc(NN=Cc2ccc3c(c2)OCO3)n1 [Compound 67] | > 100 µM | inactive | – | – | –
24 | CCCCN(CCCC)c1nc(NN=C(C)c2ccccc2)nc(Nc2ccc([N+](=O)[O-])cc2)n1 [Compound 74] | > 100 µM | inactive | – | – | –
25 | CNc1nc(NN=Cc2ccccc2[N+](=O)[O-])nc(Nc2ccccc2)n1 [Compound 65] | > 100 µM | inactive | – | – | –
26 | Cc1ccc(Nc2nc(NN=Cc3cccc(Br)c3)nc(Nc3ccccc3)n2)c(C)c1 [Compound 49] | 1.2 µM | inactive | – | – | –
27 | Oc1ccc(Nc2nc(Nc3cccc(C(F)(F)F)c3)nc(N3CCOCC3)n2)cc1 [Compound 53] | 1.2 µM | inactive | – | – | –
28 | CC(C)(C)Nc1nc(NCc2ccccc2)nc(N/N=C/c2ccccc2F)n1 [Compound 93, 2-fluorobenzaldehyde N-[4-(benzylamino)-6-(tert-butylamino)-1,3,5-triazin-2-yl]hydrazone] | – | Inactive | – | 0.503 µM | 0.006 µM
